In ChEMBL document CHEMBL2346511, “Advances in the discovery of kinesin spindle protein (Eg5) inhibitors as antitumor agents” (Eur J Med Chem, 2013):
pIC50: −log10 of the molar value. Values belong to the compound of their own block, whether it stands above or below them.

Tests used:
[1] = target: T1, Kinesin-like protein KIF11 (Homo sapiens, UniProt P52732); assay: Inhibition of human recombinant Eg5 ATPase activity expressed in Escherichia coli after 30 mins by malachite green-based spectrophotometric analysis
T1 sequence (P52732 whole entry): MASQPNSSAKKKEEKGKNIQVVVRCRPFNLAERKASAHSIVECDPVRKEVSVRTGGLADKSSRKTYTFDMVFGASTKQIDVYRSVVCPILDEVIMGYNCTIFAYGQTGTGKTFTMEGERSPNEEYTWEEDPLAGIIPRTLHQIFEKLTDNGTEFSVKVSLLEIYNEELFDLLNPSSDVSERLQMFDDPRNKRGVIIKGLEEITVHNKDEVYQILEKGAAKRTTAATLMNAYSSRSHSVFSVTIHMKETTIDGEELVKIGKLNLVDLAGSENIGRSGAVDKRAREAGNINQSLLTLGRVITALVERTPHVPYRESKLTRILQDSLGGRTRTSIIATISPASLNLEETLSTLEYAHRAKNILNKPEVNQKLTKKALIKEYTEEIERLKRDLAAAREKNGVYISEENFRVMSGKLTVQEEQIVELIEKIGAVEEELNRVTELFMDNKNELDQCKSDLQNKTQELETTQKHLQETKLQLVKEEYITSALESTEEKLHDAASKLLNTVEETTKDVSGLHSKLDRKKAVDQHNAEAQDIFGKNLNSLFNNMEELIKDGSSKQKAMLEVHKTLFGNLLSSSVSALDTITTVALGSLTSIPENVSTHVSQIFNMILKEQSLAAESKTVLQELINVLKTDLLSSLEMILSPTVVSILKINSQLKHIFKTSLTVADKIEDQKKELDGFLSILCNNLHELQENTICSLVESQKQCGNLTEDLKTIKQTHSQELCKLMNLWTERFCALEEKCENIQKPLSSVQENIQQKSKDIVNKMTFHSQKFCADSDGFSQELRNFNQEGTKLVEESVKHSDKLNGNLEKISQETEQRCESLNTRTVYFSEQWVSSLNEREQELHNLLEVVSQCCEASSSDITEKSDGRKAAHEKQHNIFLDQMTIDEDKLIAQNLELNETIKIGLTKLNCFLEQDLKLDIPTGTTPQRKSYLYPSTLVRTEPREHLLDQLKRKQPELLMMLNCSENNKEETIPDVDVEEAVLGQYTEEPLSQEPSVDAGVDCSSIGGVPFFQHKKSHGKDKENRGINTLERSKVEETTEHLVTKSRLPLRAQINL

Homo sapiens [2] = assay: Toxicity in cancer patient administered as infusion for 1 hr every 21 days; assay type: organism-based; conditions: in vivo, iv
[3] = target: T1, Kinesin-like protein KIF11; assay: Inhibition of Eg5 (unknown origin)
[4] = target: T1, Kinesin-like protein KIF11; assay: Inhibition of human His-tagged Eg5 (1 to 368 amino acid residues) basal ATPase activity
[5] = Half life in cancer patient at 30 mg, iv administered as infusion for 1 hr on days 1, 8 and 15 measured after 28 days; conditions: human, in vivo
Homo sapiens [6] = assay: Toxicity in iv dosed cancer patient administered as infusion for 1 hr on days 1, 8 and 15 measured after 28 days; assay type: organism-based; conditions: in vivo, 672 h
Homo sapiens [7] = assay: Toxicity in acute myeloid leukemia patient administered as infusion for 1 hr on 3 consecutive days measured after 2 weeks; assay type: organism-based; conditions: in vivo, iv, 336 h
clinical = conditions: human, in vivo, iv, 16 mg/day
Description: Half life in acute myeloid leukemia patient at 16 mg/day administered as infusion for 1 hr on 3 consecutive days measured after 2 weeks

[8] = target: T2, Kinesin-like protein KIF11 (Homo sapiens) (UniProt P52732); assay: Ratio of monastrol IC50 to compound IC50 for Eg5 (unknown origin)
T2 sequence (whole entry): T1 sequence (P52732 whole entry)

[9] = Half life in solid tumor patient at 7 mg/m2 administered as infusion for 1 hr per week for 3 weeks; assay type: ADME, organism-based; conditions: human, in vivo, iv
[10] = Antitumor activity against breast cancer in patients at 12 mg/m2 administered as 1 hr infusion on day 1 and 15 measured after 28 days; assay type: functional, Homo sapiens, Breast cancer cell
Homo sapiens [11] = assay: Toxicity in breast cancer patient administered as infusion for 1 hr on day 1 and 15 measured after 28 days; assay type: organism-based; conditions: in vivo, iv, 672 h
Homo sapiens [12] = assay: Toxicity in prostate cancer patient administered once every 3 weeks; assay type: organism-based, Prostate gland; conditions: in vivo, 504 h
[13] = target: T1, Kinesin-like protein KIF11; assay: Inhibition of Eg5 in human HCT116 cells assessed as inhibition of microtubule-induced ATPase activity after 18 hrs; assay type: cell-based, HCT-116
[14] = target: T1, Kinesin-like protein KIF11; assay: Inhibition of human Eg5 assessed as inhibition of microtubule-induced ATPase activity
[15] = target: T1, Kinesin-like protein KIF11; assay: Inhibition of human Eg5 basal ATPase activity
[16] = target: T1, Kinesin-like protein KIF11; assay: Inhibition of Eg5 basal ATPase activity (unknown origin)
[17] = target: T1, Kinesin-like protein KIF11; assay: Inhibition of Eg5 assessed as inhibition of microtubule-induced ATPase activity (unknown origin)
[18] = Antiproliferative activity against human NCI60 cells

SMILES: Cc1cc2c(C(C)C)c(O)c(O)c(C=O)c2c(O)c1-c1c(C)cc2c(C(C)C)c(O)c(O)c(C=O)c2c1O [GOSSYPOL]
pIC50 [1]: 4.97

SMILES: Cc1ccc(C(=O)N(CCCN)[C@@H](c2oc3cc(Cl)ccc3c(=O)c2Cc2ccccc2)C(C)C)cc1 [SB-743921]
MTD (Homo sapiens [2]): 4 mg/m2

pIC50 [3]: 4.52
SMILES: CCOC(=O)C1=C(C)NC(=S)NC1c1cccc(O)c1 (centres undefined) [MONASTROL]

pIC50 [4]: 6.46
SMILES: O=C1CCCC2=C1[C@H](c1cc(O)ccc1Br)NC(=S)N2

SMILES: Cc1ccc(C(=O)N(CCCN)C(c2nc3snc(C)c3c(=O)n2Cc2ccccc2)C(C)C)cc1 (single isomer, unassigned; (+)) [AZD-4877]
half-life at 672 h [5]: 960 min
MTD (Homo sapiens [6]): 30 mg
MTD (Homo sapiens [7]): 16 mg/day
half-life at 336 h (clinical): 1020 min

pIC50 [1]: 7.22
Ratio IC50 [8]: > 100
SMILES: Cc1ccc(C(=O)N2CCc3cc4c(cc3C2c2cccc(O)c2)OCO4)cc1 (centres undefined)

SMILES: CS(=O)(=O)O.Cc1ccc(C(=O)N(CCCN)[C@@H](c2nc3cc(Cl)ccc3c(=O)n2Cc2ccccc2)C(C)C)cc1 [ISPINESIB MESYLATE]
half-life [9]: 1980 min
Activity [10]: 9%
MTD (Homo sapiens [11]): 12 mg/m2
MTD (Homo sapiens [12]): 18 mg/m2

pIC50 [13]: 5.89
SMILES: CC(=O)NC1=NN(C(C)=O)C(C)(c2ccccc2)S1 (centres undefined)

SMILES: CC(C)(O)[C@@H]1C[C@@H](O)[C@]2(C)[C@H](CC[C@@]3(C)[C@H]2CC[C@H]2Cc4c([nH]c5ccccc45)[C@@]23C)O1 [TERPENDOLE E]
pIC50 [14]: 4.64
pIC50 [15]: 4.64

pIC50 [1]: 7.40
Ratio IC50 [8]: > 100
SMILES: O=C(c1ccc(O)cc1)N1CCc2cc3c(cc2C1c1cccc(O)c1)OCO3 (centres undefined)

pIC50 [1]: 7.00
SMILES: CC1=C(C(=O)Nc2ccc(Cl)cc2)C(c2ccccc2)C2=C(CC(C)(C)CC2=O)N1 (centres undefined)

pIC50 [3]: 7.40
SMILES: CCC(c1nc2ccccc2n1Cc1ccccc1)N(CCCN(C)C)C(=O)c1ccc(Br)cc1 (centres undefined)

pIC50 [3]: 6.19
SMILES: O=C1[C@@H]2Cc3c([nH]c4ccccc34)[C@@H](c3cccc(O)c3)N2C(=O)N1Cc1ccccc1

SMILES: CC1(C)CCC[C@]2(C)O[C@H]3CC[C@@]4(C)[C@@H](CC[C@]5(C)[C@@H]4CC[C@]4(C)c6c(OS(=O)(=O)O)ccc(OS(=O)(=O)O)c6C[C@@H]54)[C@]3(C)CC[C@@H]12 [ADOCIASULFATE-2]
pIC50 [16]: 5.46
pIC50 [17]: 5.28

SMILES: N[C@@H](CSC(c1ccccc1)(c1ccccc1)c1ccccc1)C(=O)O [S-TRITYL-L-CYSTEINE]
GI50 [18]: 1300 nM

pIC50 [1]: 7.70
Ratio IC50 [8]: > 100
SMILES: NCCC(=O)N1CCc2cc3c(cc2C1c1cccc(O)c1)OCO3 (centres undefined)

Ratio IC50 [8]: 10
SMILES: O=C1CCCC2=C1[C@H](c1cccc(O)c1)NC(=S)N2

pIC50 [3]: 8.22
SMILES: CON(C)C(=O)N1N=C(c2cc(F)ccc2F)S[C@@]1(CCCN)c1ccccc1 [FILANESIB]
